# Patent US8133847B2, “Pyrido[2,3-B]pyrazine derivatives useful as herbicidal compounds” (Syngenta Limited, priority 2006, dated 2012)
# Columns and labels:
# Type in all cases: in vivo
# [1] = tested on: test plants (a variety of test species); test: Example B2 herbicidal action, post-emergence, pots in glasshouse; settings: evaluated after 13 days, 100=total damage to plant, 0=no damage to plant
# Method: (§1) Seeds of a variety of test species were sown in standard soil in pots. After 8 days cultivation (post-emergence) under controlled conditions in a glasshouse (at 24/16° C., day/night; 14 hours light; 65% humidity), the plants were sprayed with an aqueous spray solution derived from the formulation of the technical active ingredient in acetone/water (50:50) solution containing 0.5% Tween 20 (polyoxyethylene sorbitan monolaurate, CAS RN 9005-64-5). The test plants were then grown in a glasshouse under controlled conditions in a glasshouse (at 24/16° C., day/night; 14 hours light; 65% humidity) and watered twice daily. After 13 days, the test was evaluated (100=total damage to plant; 0=no damage to plant).
# Setaria faberi (SETFA) = test: as above; settings: Application post-emergence, evaluated after 13 days (100=total damage to plant; 0=no damage to plant)
# Method: as §1
# Solanum nigrum (SOLNI) = test: as above; settings: Application post-emergence, evaluated after 13 days
# Method: as §1
# [2] = tested on: Amaranthus retroflexus (AMARE); test: as above; settings: Application post-emergence, evaluated after 13 days (100=total damage to plant; 0=no damage to plant)
# Method: as §1
# [3] = tested on: Ipomea hederaceae (IPOHE); test: as above; settings: Application post-emergence, evaluated after 13 days (100=total damage to plant; 0=no damage to plant)
# Method: as §1
# [4] = tested on: Echinochloa crusgalli (ECHCG); test: as above; settings: Application post-emergence, evaluated after 13 days (100=total damage to plant; 0=no damage to plant)
# Method: as §1
# [5] = tested on: Digitaria sanguinalis (DIGSA); test: Example B3 herbicidal action, post-emergence; settings: 1000 g/ha, after 13 days, 100=total damage to plant, 0=no damage to plant
# Method: (§2) Seeds of a variety of test species were sown in sterilised compost in small pots. After cultivation for seven days (post-emergence) in controlled conditions in the glasshouse (at 24/16° C., day/night; 14 hours light; 65% humidity) the plants were sprayed with 1 mg of the active ingredient, formulated in 2.5 ml acetone/water (50:50) solution, which is equivalent to 1000 g/ha. Once the foliage was dry, the pots were kept in the glasshouse (at 24/16° C., day/night; 14 hours light; 65% humidity), and were watered twice daily. After 13 days the test was evaluated (100=total damage to plant, 0=no damage to plant).
# [6] = tested on: Amaranthus retroflexus (AMARE); test: Example B3 herbicidal action, post-emergence; settings: 1000 g/ha, after 13 days, 100=total damage to plant, 0=no damage to plant
# Method: as §2
# [7] = tested on: Chenopodium album (CHEAL); test: Example B3 herbicidal action, post-emergence; settings: 1000 g/ha, after 13 days, 100=total damage to plant, 0=no damage to plant
# Method: as §2
# [8] = tested on: Alopecurus myosuroides (ALOMY); test: Example B3 herbicidal action, post-emergence; settings: 1000 g/ha, after 13 days, 100=total damage to plant, 0=no damage to plant
# Method: as §2
Compound,damage to the test plants [1],"damage to plant, Digitaria sanguinalis (DIGSA) [5]","damage to plant, Amaranthus retroflexus (AMARE) [6]","damage to plant, Chenopodium album (CHEAL) [7]","damage to plant, Alopecurus myosuroides (ALOMY) [8]",other results
O=c1[nH]c2nccnc2c(O)c1-c1ccccc1 [Compound A22],no damage,,,,,
CC(C)(C)C(=O)Oc1c(-c2cc(F)c(Cl)cc2Cl)c(=O)[nH]c2nccnc12 [Compound B48],no damage,,,,,
Cn1c(=O)c(-c2ccccc2)c(OC(=O)C(C)(C)C)c2nccnc21 [Compound C137],no damage,,,,,"damage to plant, Setaria faberi (SETFA) (Setaria faberi (SETFA)): 0; damage to plant, Solanum nigrum (SOLNI) (Solanum nigrum (SOLNI)): 0; damage to plant, Amaranthus retroflexus (AMARE) [2]: 9; damage to plant, Ipomea hederaceae (IPOHE) [3]: 5; damage to plant, Echinochloa crusgalli (ECHCG) [4]: 0"
CCn1c(=O)c(-c2c(F)c([N+](=O)[O-])cc(F)c2Cl)c(OC(=O)C(C)(C)C)c2nccnc21 [Compound C158],,0,9,10,0,
Cc1cccc([N+](=O)[O-])c1-c1c(OC(=O)C(C)(C)C)c2nccnc2n(C)c1=O [Compound C161],,5,6,2,0,
